Measured values taken from patent US20250064762A1, “A SUBSTITUTED AROMATIC DICARBONIC ACID AMIDE AS AN INHIBITOR OF THE FERROPTOSIS SUPPRESSOR PROTEIN-1 (FSP1)” (JULIUS-MAXIMILIANS-UNIVERSITÄT WÜRZBURG, priority 2021, published 2025).

Assays:
Format in all cases: cell-based, human
HT1080 cells [1] = assay: Mass spectrometry lipidomics of CPBA-treated cells; settings: 200 μM CPBA, 16 h
Description: Mass spectrometry-based lipid analysis was performed by Lipotype GmbH (Dresden, Germany) as described (Sampaio et al. 2011). Lipids were extracted using a two-step chloroform/methanol procedure (Ejsing et al. 2009). […]
Samples were analyzed by direct infusion on a QExactive mass spectrometer (Thermo Fisher Scientific) equipped with a TriVersa NanoMate ion source (Advion Biosciences). Samples were analyzed in both positive and negative ion modes with a resolution of Rm/z=200=280000 for MS and Rm/z=200=17500 for MSMS experiments, in a single acquisition. […]
Data were analyzed with in-house developed lipid identification software based on LipidXplorer (Herzog et al. 2011; Herzog et al. 2012). […]
Next, we analyzed the lipidomic signature of HT1080 cells treated with CPBA (200 μM, 16 h) using the lipidomics methods described above. […]

HT1080 cells [2] = assay: Lipid droplet staining with BODIPY 493/503; settings: CPBA 100 μM; T863 10 μM and PF-06424439 5 μM; 16 h
Description: HT1080 cells were seeded on glass coverslips (15,000 cells per well of 12-well plate) in complete DMEM, and incubated for 16 h with 100 μM CPBA or with 0.1% of the DMSO solvent control, in the absence or presence of inhibitors of DGAT1 and DGAT2 (10 μM T863/iDGAT1; 5 μM PF-06424439/iDGAT2). Cells were fixed with 4% para-formaldehyde, lipid droplets were stained with the neutral lipid droplet stain BODIPY 493/503 (2 μM, 30 min), and nuclei were counterstained with 4′,6-diamidino-2-phenylindole (DAPI). Cells were mounted with Immu-Mount (Fisher Scientific), and imaged by fluorescence microscopy on a THUNDER imager (THUNDER Imager Live Cell & 3D Cell Culture & 3D Assay system, Leica DMI8; Leica Microsystems), using a 63× objective.
We next investigated the impact of CPBA on triglyceride levels and ferroptosis sensitivity by first imaging lipid droplets with the neutral lipid stain BODIPY 493/503.
(§1) The diglyceride acyltransferase isoforms 1 and 2 (DGAT1, DGAT2) are required to catalyze the formation of triglycerides from diacylglycerol and acyl-CoA.

HT1080 cells [3] = assay: FIN56-induced cell death with or without DGAT1/2 inhibitors; settings: CPBA versus CPBA+iDGAT1/2
Description: Cells were seeded onto 96-well plates (5,000 cells per well), and treated with serial dilutions of ferroptosis-inducing compounds (erastin, BSO, RSL3, FIN56) or cytotoxic drugs (staurosporine, nocodazole, tunicamycin, paclitaxel, etoposide, menadione, rotenone, FCCP, carboplatin) in the absence or presence of CPBA or iFSP1 (100 μM or 10 μM, respectively; unless stated otherwise) or the DMSO solvent control. Ferroptotic cell death was evaluated by incubating in the absence or presence of liproxstatin-1 (100 nM), ferrostatin-1 (200 nM), or deferoxamine (100 μM). Cell viability was assessed after 16 h using AquaBluer as an indicator of viable cells according to the manufacturer's recommendations (MultiTarget Pharmaceuticals, LLC). Fluorescence (excitation, 540 nm; emission, 590 nm) was analyzed on a Clariostar microplater reader.
as §1

**Q.** `O=C(Nc1ccccc1C(=O)O)c1ccc(Oc2ccc(C(=O)Nc3ccccc3C(=O)O)cc2)cc1` [CPBA, 2-[[4-[4-[(2-carboxyphenyl)carbamoyl]phenoxy]benzoyl]amino]-benzoic acid] was tested. Which “PUFA ether lipids (PE-O, PC-O)” value (HT1080 cells [1]) did it give?
**A.** downregulate polyunsaturated fatty acid (PUFA) ether lipids

**Q.** What about the PUFA-triacylglycerides (HT1080 cells [1]) of the same compound?
**A.** upregulate PUFA-triacylglycerides (PUFA-TAGS)

**Q.** And the lipid droplets (HT1080 cells [2])?
**A.** triggered the accumulation of lipid droplets in HT1080 cells

**Q.** What about the “influence of lipid droplets on sensitization to FIN56-induced cell death” value (HT1080 cells [3]) of the same compound?
**A.** the absence or presence of lipid droplets did not influence the CPBA-mediated sensitization of HT1080 cells to FIN56-induced cell death
